Earlier results in patent US20080188457A1, “Modulation of Neurogenesis with Biguanides and GSK3-beta Agents” (BrainCells, Inc., priority 2007, published 2008).
pEC50, pIC50: −log10 of the molar value. Blank lines part the entries; values can stand above or below the compound they belong to.

Experiments:
[1] = tested on: Group I or Group III receptors; conditions: at sub-mM concentrations
[2] = target: mGluR3 (Homo sapiens, UniProt Q14832)
[3] = target: mGluR2 (Homo sapiens, UniProt Q14416)
[4] = tested on: KA, AMPA, and NMDA iGlu receptors
[5] = target: human mGlu2 receptor (Homo sapiens, UniProt Q14416); conditions: in vitro; low nanomolar range
human mGlu2 receptor, sequence (Q14416 19-872): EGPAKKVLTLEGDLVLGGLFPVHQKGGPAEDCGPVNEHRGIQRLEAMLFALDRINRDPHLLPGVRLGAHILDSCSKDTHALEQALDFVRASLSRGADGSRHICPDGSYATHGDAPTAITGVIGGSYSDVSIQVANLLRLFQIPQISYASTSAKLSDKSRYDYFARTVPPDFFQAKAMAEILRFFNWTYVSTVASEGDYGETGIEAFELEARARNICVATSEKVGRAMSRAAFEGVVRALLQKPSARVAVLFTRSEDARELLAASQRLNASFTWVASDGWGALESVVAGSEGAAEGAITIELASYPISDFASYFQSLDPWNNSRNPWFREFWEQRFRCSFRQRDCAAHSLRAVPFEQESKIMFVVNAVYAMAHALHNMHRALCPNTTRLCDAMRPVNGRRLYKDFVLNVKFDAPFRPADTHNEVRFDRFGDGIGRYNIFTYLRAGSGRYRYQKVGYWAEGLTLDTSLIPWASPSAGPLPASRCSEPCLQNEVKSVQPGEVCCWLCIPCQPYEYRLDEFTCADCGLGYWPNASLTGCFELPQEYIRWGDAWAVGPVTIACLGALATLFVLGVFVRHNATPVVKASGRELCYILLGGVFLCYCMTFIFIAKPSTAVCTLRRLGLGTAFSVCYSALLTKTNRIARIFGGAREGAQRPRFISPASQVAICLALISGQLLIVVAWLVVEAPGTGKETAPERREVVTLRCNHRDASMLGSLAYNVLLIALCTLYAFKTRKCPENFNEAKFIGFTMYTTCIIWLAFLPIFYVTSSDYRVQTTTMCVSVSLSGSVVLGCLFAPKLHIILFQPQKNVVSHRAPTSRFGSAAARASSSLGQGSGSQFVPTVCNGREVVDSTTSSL

[6] = target: human mGlu3 receptor (Homo sapiens, UniProt Q14832); conditions: in vitro; low nanomolar range
human mGlu3 receptor, sequence (Q14832 23-879): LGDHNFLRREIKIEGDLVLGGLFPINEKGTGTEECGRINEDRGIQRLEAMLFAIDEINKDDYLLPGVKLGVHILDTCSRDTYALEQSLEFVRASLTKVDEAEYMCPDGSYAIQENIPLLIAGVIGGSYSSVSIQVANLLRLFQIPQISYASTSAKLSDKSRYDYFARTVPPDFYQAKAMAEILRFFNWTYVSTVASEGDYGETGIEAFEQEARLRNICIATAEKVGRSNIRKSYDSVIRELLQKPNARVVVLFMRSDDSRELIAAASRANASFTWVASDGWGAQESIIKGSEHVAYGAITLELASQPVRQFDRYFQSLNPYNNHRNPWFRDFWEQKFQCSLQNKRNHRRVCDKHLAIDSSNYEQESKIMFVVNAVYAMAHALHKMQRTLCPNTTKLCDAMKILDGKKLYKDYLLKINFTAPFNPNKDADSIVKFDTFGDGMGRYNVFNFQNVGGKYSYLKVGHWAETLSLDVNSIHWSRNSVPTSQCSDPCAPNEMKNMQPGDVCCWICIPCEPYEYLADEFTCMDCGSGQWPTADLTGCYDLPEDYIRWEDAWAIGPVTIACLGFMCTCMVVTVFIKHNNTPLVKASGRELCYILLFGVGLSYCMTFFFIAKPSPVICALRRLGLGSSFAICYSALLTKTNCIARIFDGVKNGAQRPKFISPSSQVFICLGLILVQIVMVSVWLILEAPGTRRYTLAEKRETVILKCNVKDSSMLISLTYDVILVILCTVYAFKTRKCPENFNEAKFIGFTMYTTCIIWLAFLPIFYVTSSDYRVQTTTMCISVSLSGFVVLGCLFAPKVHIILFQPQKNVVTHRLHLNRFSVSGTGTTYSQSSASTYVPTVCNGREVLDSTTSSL

[7] = tested on: gluconeogenesis; conditions: person with type 2 diabetes

mGluR3, sequence (Q14832 23-879): as above
mGluR2, sequence (Q14416 19-872): as the sequence (Q14416 19-872) above

activity against Group I or Group III receptors [1]: no appreciable activity | pIC50 [2]: ~4.52 | pIC50 [3]: ~4.52
Compound: NC1(C(=O)O)CCc2cc(P(=O)(O)O)ccc21 (racemic) [APICA, (RS)-1-amino-5-phosphonoindan-1-carboxylic acid]

activity against KA, AMPA, and NMDA iGlu receptors [4]: substantially inactive
Compound: N[C@](CC1c2ccccc2Oc2ccccc21)(C(=O)O)[C@H]1C[C@@H]1C(=O)O [LY341495, (2S)-2-amino-2-(1S,2S-2-carboxycycloprop-1-yl)-3-(xanth-9-yl) propanoic acid]

pEC50 [5]: > 8.00 | pEC50 [6]: > 8.00
Compound: N[C@@]1(C(=O)O)CO[C@H]2[C@H](C(=O)O)[C@H]21 [LY379268, (−)-2-Oxa-4-aminobicyclohexane-4,6-dicarboxylic acid]

Compound: CN(C)C(=N)NC(=N)N [metformin, 1,1-Dimethylbiguanide]
reduction of the rate of gluconeogenesis [7]: over one third
